Results taken from patent publication US6737383B1, “Herbicidal oxadiazolidines” (priority 1999, dated 2004).

Columns and labels:
cocklebur = assay: Test B pre/postemergence cocklebur; format: in vivo, Xanthium strumarium; details: for Cocklebur plant response rating: scale of 0 to 10 where 0 is no effect and 10 is complete control
Method in brief: (§1)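 Test chemicals in a non-phytotoxic solvent mixture with surfactant were sprayed preemergence onto planted seeds and postemergence onto plants 2 to 18 cm tall (1- to 4-leaf stage). After twelve to sixteen days in a greenhouse, injury was visually rated against untreated controls from 0 (no effect) to 10 (complete control).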

corn = assay: Test B pre/postemergence corn; format: in vivo, Zea mays; details: for Corn plant response rating: scale of 0 to 10 where 0 is no effect and 10 is complete control
Method in brief: as §1

crabgrass = assay: Test B pre/postemergence crabgrass; format: in vivo, Digitaria sanguinalis; details: for Crabgrass plant response rating: scale of 0 to 10 where 0 is no effect and 10 is complete control
Method in brief: as §1

giant foxtail = assay: Test B pre/postemergence giant foxtail; format: in vivo, Setaria faberii; details: for Giant foxtail plant response rating: scale of 0 to 10 where 0 is no effect and 10 is complete control
Method in brief: as §1

morningglory = assay: Test B pre/postemergence morningglory; format: in vivo, Ipomoea hederacea; details: for Morningglory plant response rating: scale of 0 to 10 where 0 is no effect and 10 is complete control
Method in brief: as §1

pigweed = assay: Test B pre/postemergence pigweed; format: in vivo, Amaranthus retroflexus; details: for Redroot pigweed plant response rating: scale of 0 to 10 where 0 is no effect and 10 is complete control
Method in brief: as §1

rape = assay: Test B pre/postemergence rape; format: in vivo, Brassica napus; details: for Rape plant response rating: scale of 0 to 10 where 0 is no effect and 10 is complete control
Method in brief: as §1

soybean = assay: Test B pre/postemergence soybean; format: in vivo, Glycine max; details: for Soybean plant response rating: scale of 0 to 10 where 0 is no effect and 10 is complete control
Method in brief: as §1

velvetleaf = assay: Test B pre/postemergence velvetleaf; format: in vivo, Abutilon theophrasti; details: for Velvetleaf plant response rating: scale of 0 to 10 where 0 is no effect and 10 is complete control
Method in brief: as §1

wheat = assay: Test B pre/postemergence wheat; format: in vivo, Triticum aestivum; details: for Wheat plant response rating: scale of 0 to 10 where 0 is no effect and 10 is complete control
Method in brief: as §1

wild oat = assay: Test B pre/postemergence wild oat; format: in vivo, Avena fatua; details: for Wild oats plant response rating: scale of 0 to 10 where 0 is no effect and 10 is complete control
Method in brief: as §1

purple nutsedge = assay: Test B pre/postemergence purple nutsedge; format: in vivo, Cyperus rotundus; details: for Nutsedge plant response rating: scale of 0 to 10 where 0 is no effect and 10 is complete control
Method in brief: as §1

rice = assay: Test B flood test rice; format: in vivo, Oryza sativa
Method in brief: (§2)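 Read-out is a visual response score from 0 (no effect) to 10 (complete control), assigned by comparison with untreated controls. Treatment was applied at the 2-leaf stage, and plants stayed in the greenhouse for twelve to sixteen days before scoring.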

smallflower flatsedge = assay: Test B flood test smallflower flatsedge; format: in vivo, Cyperus difformis
Method in brief: as §2

duck salad = assay: Test B flood test duck salad; format: in vivo, Heteranthera limosa
Method in brief: as §2

[1] = Postemergence, Rate 125 g/ha, scale 0 to 10, 0 is no effect, 10 is complete control
[2] = Postemergence, Rate 250 g/ha, scale 0 to 10, 0 is no effect, 10 is complete control
[3] = Preemergence, Rate 62 g/ha, scale 0 to 10 (0 no effect, 10 complete control)
[4] = Rate 500 g/ha, Postemergence, scale 0 to 10, 0 no effect, 10 complete control
[5] = Rate 62 g/ha, flood test species, Pre-emergence, visual evaluation after twelve to sixteen days
[6] = Rate 125 g/ha, under heading Pre-emergence, flood test species, visual evaluation after twelve to sixteen days
[7] = Rate 250 g/ha, Pre-emergence, flood-test species, scale 0 to 10, 0 is no effect, 10 is complete control
[8] = Rate 500 g/ha, Pre-emergence, flood test species, scale 0 to 10 (0 no effect, 10 complete control)

## CC1CC1n1c(=O)on(C(=O)N(c2ccc(F)cc2)C(C)C)c1=O (centres unmarked) [Compound 371]
cocklebur; [1]
  Plant response rating, Cocklebur: 0
cocklebur; [2]
  Plant response rating, Cocklebur: 0
cocklebur; [3]
  Plant response rating, Cocklebur: 0
cocklebur; Preemergence, Rate 125 g/ha
  Cocklebur plant response rating (0 to 10 scale): 0
cocklebur; Preemergence, Rate 250 g/ha
  Cocklebur plant response rating: 0
cocklebur; Preemergence, Rate 500 g/ha
  Cocklebur plant response rating: 0
cocklebur; Rate 62 g/ha, Postemergence
  Cocklebur plant response rating: 0
cocklebur; [4]
  Plant response rating, Cocklebur: 0
corn; [1]
  Plant response rating, Corn: 0
corn; [2]
  Plant response rating, Corn: 0
corn; [3]
  Plant response rating, Corn: 0
corn; Preemergence, Rate 125 g/ha
  Corn plant response rating (0 to 10 scale): 0
corn; Preemergence, Rate 250 g/ha
  Corn plant response rating: 2
corn; Preemergence, Rate 500 g/ha
  Corn plant response rating: 7
corn; Rate 62 g/ha, Postemergence
  Corn plant response rating: 0
corn; [4]
  Plant response rating, Corn: 1
crabgrass; [1]
  Plant response rating, Crabgrass: 4
crabgrass; [2]
  Plant response rating, Crabgrass: 8
crabgrass; [3]
  Plant response rating, Crabgrass: 8
crabgrass; Preemergence, Rate 125 g/ha
  Crabgrass plant response rating (0 to 10 scale): 10
crabgrass; Preemergence, Rate 250 g/ha
  Crabgrass plant response rating: 10
crabgrass; Preemergence, Rate 500 g/ha
  Crabgrass plant response rating: 10
crabgrass; Rate 62 g/ha, Postemergence
  Crabgrass plant response rating: 3
crabgrass; [4]
  Plant response rating, Crabgrass: 9
Giant foxtail; [1]
  Plant response rating, Giant foxtail: 7
Giant foxtail; [2]
  Plant response rating, Giant foxtail: 8
Giant foxtail; [3]
  Plant response rating, Giant foxtail: 10
Giant foxtail; Preemergence, Rate 125 g/ha
  Giant foxtail plant response rating (0 to 10 scale): 10
Giant foxtail; Preemergence, Rate 250 g/ha
  Giant foxtail plant response rating: 10
Giant foxtail; Preemergence, Rate 500 g/ha
  Giant foxtail plant response rating: 10
Giant foxtail; Rate 62 g/ha, Postemergence
  Giant foxtail plant response rating: 5
Giant foxtail; [4]
  Plant response rating, Giant foxtail: 9
morningglory; [1]
  Plant response rating, Morningglory: 7
morningglory; [2]
  Plant response rating, Morningglory: 7
morningglory; [3]
  Plant response rating, Morningglory: 0
morningglory; Preemergence, Rate 125 g/ha
  Morningglory plant response rating (0 to 10 scale): 0
morningglory; Preemergence, Rate 250 g/ha
  Morningglory plant response rating: 0
morningglory; Preemergence, Rate 500 g/ha
  Morningglory plant response rating: 3
morningglory; Rate 62 g/ha, Postemergence
  Morningglory plant response rating: 7
morningglory; [4]
  Plant response rating, Morningglory: 10
pigweed; [1]
  Plant response rating, Redroot pigweed: 0
pigweed; [2]
  Plant response rating, Redroot pigweed: 2
pigweed; [3]
  Plant response rating, Redroot pigweed: 4
pigweed; Preemergence, Rate 125 g/ha
  Redroot pigweed plant response rating (0 to 10 scale): 10
pigweed; Preemergence, Rate 250 g/ha
  Redroot pigweed plant response rating: 10
pigweed; Preemergence, Rate 500 g/ha
  Redroot pigweed plant response rating: 10
pigweed; Rate 62 g/ha, Postemergence
  Redroot pigweed plant response rating: 0
pigweed; [4]
  Plant response rating, Redroot pigweed: 5
rape; [1]
  Plant response rating, Rape: 0
rape; [2]
  Plant response rating, Rape: 0
rape; [3]
  Plant response rating, Rape: 0
rape; Preemergence, Rate 125 g/ha
  Rape plant response rating (0 to 10 scale): 4
rape; Preemergence, Rate 250 g/ha
  Rape plant response rating: 9
rape; Preemergence, Rate 500 g/ha
  Rape plant response rating: 10
rape; Rate 62 g/ha, Postemergence
  Rape plant response rating: 0
rape; [4]
  Plant response rating, Rape: 0
soybean; [1]
  Plant response rating, Soybean: 1
soybean; [2]
  Plant response rating, Soybean: 1
soybean; [3]
  Plant response rating, Soybean: 0
soybean; Preemergence, Rate 125 g/ha
  Soybean plant response rating (0 to 10 scale): 0
soybean; Preemergence, Rate 250 g/ha
  Soybean plant response rating: 0
soybean; Preemergence, Rate 500 g/ha
  Soybean plant response rating: 2
soybean; Rate 62 g/ha, Postemergence
  Soybean plant response rating: 1
soybean; [4]
  Plant response rating, Soybean: 4
velvetleaf; [1]
  Plant response rating, Velvetleaf: 0
velvetleaf; [2]
  Plant response rating, Velvetleaf: 2
velvetleaf; [3]
  Plant response rating, Velvetleaf: 0
velvetleaf; Preemergence, Rate 125 g/ha
  Velvetleaf plant response rating (0 to 10 scale): 4
velvetleaf; Preemergence, Rate 250 g/ha
  Velvetleaf plant response rating: 5
velvetleaf; Preemergence, Rate 500 g/ha
  Velvetleaf plant response rating: 6
velvetleaf; Rate 62 g/ha, Postemergence
  Velvetleaf plant response rating: 0
velvetleaf; [4]
  Plant response rating, Velvetleaf: 3
wheat; [1]
  Plant response rating, Wheat: 0
wheat; [2]
  Plant response rating, Wheat: 0
wheat; [3]
  Plant response rating, Wheat: 0
wheat; Preemergence, Rate 125 g/ha
  Wheat plant response rating (0 to 10 scale): 0
wheat; Preemergence, Rate 250 g/ha
  Wheat plant response rating: 2
wheat; Preemergence, Rate 500 g/ha
  Wheat plant response rating: 4
wheat; Rate 62 g/ha, Postemergence
  Wheat plant response rating: 0
Wild oat; [1]
  Plant response rating, Wild oats: 0
Wild oat; [2]
  Plant response rating, Wild oats: 3
Wild oat; [3]
  Plant response rating, Wild oats: 0
Wild oat; Preemergence, Rate 125 g/ha
  Wild oats plant response rating (0 to 10 scale): 3
Wild oat; Preemergence, Rate 250 g/ha
  Wild oats plant response rating: 3
Wild oat; Preemergence, Rate 500 g/ha
  Wild oats plant response rating: 6
Wild oat; Rate 62 g/ha, Postemergence
  Wild oats plant response rating: 0
Wild oat; [4]
  Plant response rating, Wild oats: 4
Purple nutsedge; [1]
  Plant response rating, Nutsedge: 0
Purple nutsedge; [2]
  Plant response rating, Nutsedge: 0
Purple nutsedge; [3]
  Plant response rating, Nutsedge: 0
Purple nutsedge; Preemergence, Rate 125 g/ha
  Nutsedge plant response rating (0 to 10 scale): 0
Purple nutsedge; Preemergence, Rate 250 g/ha
  Nutsedge plant response rating: 5
Purple nutsedge; Preemergence, Rate 500 g/ha
  Nutsedge plant response rating: 9
Purple nutsedge; Rate 62 g/ha, Postemergence
  Nutsedge plant response rating: 0
Purple nutsedge; [4]
  Plant response rating, Nutsedge: 0
rice; [5]
  Plant response rating, Rice (0 to 10 scale, 0 is no effect, 10 is complete control): 0
rice; [6]
  Rice plant response rating (0 to 10 scale, 0 is no effect, 10 is complete control): 0
rice; [7]
  Rice plant response rating: 0
rice; [8]
  Rice plant response rating: 5
Smallflower flatsedge; [5]
  Plant response rating, S. Flatsedge (0 to 10 scale, 0 is no effect, 10 is complete control): 0
Smallflower flatsedge; [6]
  S. Flatsedge plant response rating (0 to 10 scale, 0 is no effect, 10 is complete control): 0
Smallflower flatsedge; [7]
  S. Flatsedge plant response rating: 0
Smallflower flatsedge; [8]
  S. Flatsedge plant response rating: 3
Duck salad; [5]
  Plant response rating, Ducksalad (0 to 10 scale, 0 is no effect, 10 is complete control): 0
Duck salad; [6]
  Ducksalad plant response rating (0 to 10 scale, 0 is no effect, 10 is complete control): 0
Duck salad; [7]
  Ducksalad plant response rating: 0
Duck salad; [8]
  Ducksalad plant response rating: 2
